Publication PMC5253077 (Acta biomaterialia, 2016)
In brackets after ≈: the same amount, converted by molar mass. Square brackets hold non-standard residues; d marks the D form. Peptide text beside a SMILES is read from it.

What was measured:
E. coli K12 = assay type: cell-based, Escherichia coli; conditions: K12, 20 h
S. epidermidis 1457 = assay type: cell-based, Staphylococcus epidermidis; conditions: 1457, 20 h
B. subtilis 168 = assay type: cell-based, Bacillus subtilis; conditions: 168, 20 h
S. aureus USA300 [1] = assay type: cell-based, Staphylococcus aureus; conditions: USA300, 20 h
S. aureus USA300 [2] = assay type: cell-based, Staphylococcus aureus
HeLa CCL-2 cells = assay type: cell-based, human
[3] = test system: Candida albicans ATCC 10231; assay type: cell-based; conditions: ATCC 10231, 48 h
C. glabrata ATCC 2001 = assay type: cell-based, Candida glabrata; conditions: ATCC 2001, 48 h
C. tropicalis ATCC 13803 = assay type: cell-based, Candida tropicalis; conditions: ATCC 13803, 48 h
Porcine RBCs = test: Hemolytic assay; assay type: cell-based, pig; conditions: 2% blood cells in PBS, 37°C, one hour, hemoglobin at 545 nm
Chicken RBCs = test: Hemolytic assay; assay type: cell-based; conditions: 2% blood cells in PBS, 37°C, one hour, hemoglobin at 545 nm
Human HEK293 = test: MTS cytotoxicity assay; assay type: cell-based; conditions: kidney cells
Human HaCaT = test: MTS cytotoxicity assay; assay type: cell-based; conditions: skin keratinocytes
Human HeLa (HeLa CCL-2) = test: MTS cytotoxicity assay; assay type: cell-based
[4] = test system: E. coli ATCC 25922 and ML-35p strains; conditions: cited from earlier work
E. coli ATCC 35218 = conditions: cited from earlier work
B. megaterium = conditions: cited from earlier work
S. aureus ATCC 25923 = conditions: cited from earlier work

| MIC E. coli K12 (E. coli K12) [µM] | MIC S. epidermidis 1457 (S. epidermidis 1457) [µM] | MIC B. subtilis 168 (B. subtilis 168) [µM] | MIC S. aureus USA300 (S. aureus USA300 [1]) [µM] | Structure (SMILES) | MBC S. aureus USA300 (S. aureus USA300 [2]) [µM] | MIC against S. aureus USA300, 150 mM NaCl (S. aureus USA300 [1]) [µM] | MIC against S. aureus USA300, pH 6.8 (S. aureus USA300 [1]) [μM] | MIC against S. aureus USA300, Normal medium (pH 7.4) (S. aureus USA300 [1]) | MIC against S. aureus USA300, pH 8 (S. aureus USA300 [1]) [μM] | MIC Candida albicans [3] [µM] | MIC Candida glabrata (C. glabrata ATCC 2001) [µM] | MIC Candida tropicalis (C. tropicalis ATCC 13803) [µM] | further results |
| --- | --- | --- | --- | --- | --- | --- | --- | --- | --- | --- | --- | --- | --- |
| >100 | >50 | 6.2 (≈ 7.64 µg/mL) | 3.1 to 6.2 | CC[C@H](C)[C@H](NC(=O)[C@H](CCCNC(=N)N)NC(=O)[C@H](CO)NC(=O)[C@H](CC(C)C)NC(=O)[C@H](Cc1c[nH]c2ccccc12)NC(=O)[C@H](Cc1c[nH]c2ccccc12)NC(=O)[C@@H](N)Cc1c[nH]c2ccccc12)C(=O)N[C@@H](Cc1c[nH]c2ccccc12)C(=O)O [TetraF2W] (H-WWWLSRIW-OH) | 6.2 (≈ 7.64 µg/mL) |  |  |  |  |  |  |  |  |
|  |  |  |  | CC[C@H](C)[C@H](NC(=O)[C@H](CCCNC(=N)N)NC(=O)[C@H](CCCNC(=N)N)NC(=O)[C@H](CC(C)C)NC(=O)[C@H](Cc1c[nH]c2ccccc12)NC(=O)[C@H](Cc1c[nH]c2ccccc12)NC(=O)[C@H](Cc1c[nH]c2ccccc12)NC(=O)[C@@H](N)CS)C(=O)N[C@@H](Cc1c[nH]c2ccccc12)C(=O)O [CysTetraF2W-RR] (H-CWWWLRRIW-OH) |  |  |  |  |  |  |  |  | cytotoxicity of free peptide to HeLa CCL-2 cells (HeLa CCL-2 cells): nontoxic |
| 6.2 (≈ 7.9 µg/mL) | 6.2 (≈ 7.9 µg/mL) | 3.1 (≈ 3.95 µg/mL) | 3.1 (≈ 3.95 µg/mL) | CC[C@@H](C)[C@@H](NC(=O)[C@@H](CCCCN)NC(=O)[C@@H](CCCNC(=N)N)NC(=O)[C@@H](CC(C)C)NC(=O)[C@@H](Cc1c[nH]c2ccccc12)NC(=O)[C@@H](Cc1c[nH]c2ccccc12)NC(=O)[C@H](N)Cc1c[nH]c2ccccc12)C(=O)N[C@H](Cc1c[nH]c2ccccc12)C(=O)O [TetraF2W-RK-d] (H-[dW][dW][dW][dL][dR][dK][dI][dW]-OH) | 12.5 (≈ 15.9 µg/mL) |  |  |  |  |  |  |  |  |
| 25 (≈ 31.8 µg/mL) | 6.2 (≈ 7.9 µg/mL) | 6.2 (≈ 7.9 µg/mL) | 3.1 (≈ 3.95 µg/mL) | CC[C@H](C)[C@H](NC(=O)[C@H](CCCCN)NC(=O)[C@H](CCCNC(=N)N)NC(=O)[C@H](CC(C)C)NC(=O)[C@H](Cc1c[nH]c2ccccc12)NC(=O)[C@H](Cc1c[nH]c2ccccc12)NC(=O)[C@@H](N)Cc1c[nH]c2ccccc12)C(=O)N[C@@H](Cc1c[nH]c2ccccc12)C(=O)O [TetraF2W-RK] (H-WWWLRKIW-OH) | 12.5 (≈ 15.9 µg/mL) | 3.1 (≈ 3.95 µg/mL) | 6.2 | 3.1 μM | 3.1 | 12.5 (≈ 15.9 µg/mL) | 12.5 (≈ 15.9 µg/mL) | 3.1 to 6.2 |  |
|  |  |  |  | CC[C@H](C)[C@H](NC(=O)[C@H](CCCNC(=N)N)NC(=O)[C@H](CO)NC(=O)[C@H](CC(C)C)NC(=O)[C@H](Cc1ccccc1)NC(=O)[C@H](Cc1ccccc1)NC(=O)[C@@H](N)Cc1ccccc1)C(=O)N[C@@H](Cc1ccccc1)C(N)=O [Temporin-SHf] (H-FFFLSRIF-NH2; N-terminus and C-terminus assumed) |  |  |  |  |  |  |  |  | MIC E. coli ATCC 25922 and ML-35p strains [4]: 25 to 30 µM; MIC E. coli ATCC 35218 (E. coli ATCC 35218): > 200 µM; MIC B. megaterium (B. megaterium): 3 µM (≈ 3.23 µg/mL); MIC S. aureus ATCC 25923 (S. aureus ATCC 25923): 12.5 µM (≈ 13.4 µg/mL) |

| Structure (SMILES) | MIC E. coli K12 (E. coli K12) [µM] | MIC S. epidermidis 1457 (S. epidermidis 1457) [µM] | MIC B. subtilis 168 (B. subtilis 168) [µM] | MIC S. aureus USA300 (S. aureus USA300 [1]) [µM] | MBC S. aureus USA300 (S. aureus USA300 [2]) [µM] | MIC against S. aureus USA300, 150 mM NaCl (S. aureus USA300 [1]) [µM] | MIC against S. aureus USA300, pH 6.8 (S. aureus USA300 [1]) [μM] | MIC against S. aureus USA300, Normal medium (pH 7.4) (S. aureus USA300 [1]) | MIC against S. aureus USA300, pH 8 (S. aureus USA300 [1]) [μM] | MIC Candida albicans [3] [µM] | MIC Candida glabrata (C. glabrata ATCC 2001) [µM] | MIC Candida tropicalis (C. tropicalis ATCC 13803) [µM] | further results |
| --- | --- | --- | --- | --- | --- | --- | --- | --- | --- | --- | --- | --- | --- |
| CC[C@H](C)[C@H](NC(=O)[C@H](CCCNC(=N)N)NC(=O)[C@H](CCCCN)NC(=O)[C@H](CC(C)C)NC(=O)[C@H](Cc1c[nH]c2ccccc12)NC(=O)[C@H](Cc1c[nH]c2ccccc12)NC(=O)[C@@H](N)Cc1c[nH]c2ccccc12)C(=O)N[C@@H](Cc1c[nH]c2ccccc12)C(=O)O [TetraF2W-KR] (H-WWWLKRIW-OH) | 12.5 to 25 | 12.5 (≈ 15.9 µg/mL) | 6.2 (≈ 7.9 µg/mL) | 3.1 (≈ 3.95 µg/mL) | 12.5 (≈ 15.9 µg/mL) | 3.1 (≈ 3.95 µg/mL) | 6.2 | 3.1 μM | 3.1 | 12.5 (≈ 15.9 µg/mL) | 12.5 (≈ 15.9 µg/mL) | 3.1 to 6.2 | LC50 (50% hemolytic concentration) Porcine RBCs (Porcine RBCs): 50 µM; LC50 (50% hemolytic concentration) Chicken RBCs (Chicken RBCs): 35 µM; LC50 Human HEK293 (Human HEK293): 55 µM; LC50 Human HaCaT (Human HaCaT): 60 µM; LC50 Human HeLa (Human HeLa (HeLa CCL-2)): 100 µM |
| CC[C@H](C)[C@H](NC(=O)[C@H](CCCCN)NC(=O)[C@H](CCCCN)NC(=O)[C@H](CC(C)C)NC(=O)[C@H](Cc1c[nH]c2ccccc12)NC(=O)[C@H](Cc1c[nH]c2ccccc12)NC(=O)[C@@H](N)Cc1c[nH]c2ccccc12)C(=O)N[C@@H](Cc1c[nH]c2ccccc12)C(=O)O [TetraF2W-KK] (H-WWWLKKIW-OH) | 12.5 to 25 | 6.2 (≈ 7.72 µg/mL) | 6.2 (≈ 7.72 µg/mL) | 3.1 to 6.2 | >25 | 3.1 to 6.2 | 12.5 | 3.1–6.2 μM | 3.1 | 6.2 (≈ 7.72 µg/mL) | 6.2 to 12.5 | 1.6 (≈ 1.99 µg/mL) | LC50 (50% hemolytic concentration) Porcine RBCs (Porcine RBCs): 55 µM; LC50 (50% hemolytic concentration) Chicken RBCs (Chicken RBCs): 50 µM; LC50 Human HEK293 (Human HEK293): 50 µM; LC50 Human HaCaT (Human HaCaT): 50 µM; LC50 Human HeLa (Human HeLa (HeLa CCL-2)): 70 µM |
